Assay results reported in PMC13336041, “Streptavidins Coordinate Biotin Sequestration and Self‐Resistance Within a Biotin‐Pathway Antibiotic Network” (Advanced Science, 2026).

Experiments:
[1] = biological target: BioA derived from S. lydicus (SlBioA); experiment: BioA-BioD coupled enzyme assay with KAPA as substrate, LC-MS readout; format: biochemical, Streptomyces lydicus
[2] = biological target: BioA (EcBioA) (Escherichia coli, UniProt P12995); experiment: BioA-BioD coupled enzyme assay with KAPA as substrate, LC-MS readout of desthiobiotin (IC50 […]); format: biochemical
[3] = biological target: streptavidin 2 (Sav2), residues 45-169 (S. avidinii); experiment: not stated; in solution; method not given

Sequence of BioA (EcBioA) (P12995 whole entry, the tested form may be a part): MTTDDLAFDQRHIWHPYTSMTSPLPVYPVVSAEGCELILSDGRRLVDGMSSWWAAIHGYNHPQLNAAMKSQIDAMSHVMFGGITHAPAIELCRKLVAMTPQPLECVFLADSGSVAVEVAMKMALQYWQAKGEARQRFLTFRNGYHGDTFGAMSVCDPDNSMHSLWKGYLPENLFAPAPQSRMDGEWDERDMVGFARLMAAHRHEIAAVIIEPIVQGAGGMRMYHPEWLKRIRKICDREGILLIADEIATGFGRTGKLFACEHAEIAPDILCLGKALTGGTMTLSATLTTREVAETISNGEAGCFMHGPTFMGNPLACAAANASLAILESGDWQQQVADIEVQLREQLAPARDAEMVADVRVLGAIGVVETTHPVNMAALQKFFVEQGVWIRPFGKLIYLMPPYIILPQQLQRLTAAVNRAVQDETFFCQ

Compound | IC50 [1] [µM] | Ki [2] [µM] | stoichiometry N [3]
C[C@H](N)C(=O)CCCC[C@@H](C)C(=O)O [compound 5, α-methyl-KAPA] | 6.5 | 14.9 | 
streptavidin 2 (Sav2), residues 45-169 (domain or fragment) |  |  | 4
